The numbers were not newly measured in patent US8518435B2 (priority 2011, dated 2013), which cites them from elsewhere.

The IC50 is the concentration needed to halve the response being measured.

Data set [1] deals with bacteria, viruses, parasites, and yeast/mold/fungus. The following applies: in vitro (in a test tube).
In data set [2] the test system is influenza virus. As to conditions: mice infected with lethal doses of influenza virus, vs saline controls.
Data set [3] concerns rhinovirus IB. As to conditions: in vitro; J. Nat. Prod. (1994).

On to `COC(=O)C1=CO[C@@H](C)[C@@H](C=O)[C@@H]1CC(=O)[O-].COC(=O)C1=CO[C@@H](C)[C@@H](C=O)[C@@H]1CC(=O)[O-].[Ca+2]` [calcium elenolate], for which the “effectiveness in eliminating organisms” value in data set [1] is given as “effective in eliminating a very broad range of organisms”.
On to `CC1(C)[C@@H](O[C@H]2O[C@H](C(=O)O)[C@@H](O)[C@H](O)[C@H]2O[C@@H]2O[C@H](C(=O)O)[C@@H](O)[C@H](O)[C@H]2O)CC[C@]2(C)[C@H]3C(=O)C=C4[C@@H]5C[C@@](C)(C(=O)O)CC[C@]5(C)CC[C@@]4(C)[C@]3(C)CC[C@@H]12` [glycyrrhizin], for which, in data set [2], the lung damage entry was “less lung damage” and the protection from death result is on record as “protected from death due to the virus”.
Take beta-sesquiphellandrone: the IC50 in data set [3] is 440 nM.
